Consider 17 molecules from ChEMBL document CHEMBL1136977, “Carbonic anhydrase activators. Activation of the membrane-associated isoform XV with amino acids and amines” (Bioorg Med Chem Lett, 2009).

Data set [1] concerns the target Carbonic anhydrase 4 (Homo sapiens) (UniProt P22748). The data set is described as follows: Activation of human recombinant carbonic anhydrase 4 lacking 20 amino terminal residues by stopped-flow CO2 hydrase method.
The target of data set [2] is T1, Carbonic anhydrase 15 (Mus musculus) (UniProt Q99N23).
T1 sequence (whole entry): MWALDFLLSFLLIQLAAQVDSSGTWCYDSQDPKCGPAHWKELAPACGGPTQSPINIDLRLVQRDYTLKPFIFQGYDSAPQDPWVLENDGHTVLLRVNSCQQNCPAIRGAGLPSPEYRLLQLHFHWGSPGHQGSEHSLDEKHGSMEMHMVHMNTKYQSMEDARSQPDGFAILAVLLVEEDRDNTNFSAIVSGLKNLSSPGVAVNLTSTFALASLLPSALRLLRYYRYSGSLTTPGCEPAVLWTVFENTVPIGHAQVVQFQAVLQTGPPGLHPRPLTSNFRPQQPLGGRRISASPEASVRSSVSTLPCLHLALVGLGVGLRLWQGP
The data set is described as follows: Activation of membrane associated mouse recombinant carbonic anhydrase 15 isoform by stopped-flow CO2 hydrase method.

Substrate in data set [3]: N[C@@H](Cc1c[nH]cn1)C(=O)O
The data set is described as follows: (§1) Activity of membrane associated mouse recombinant carbonic anhydrase 15 isoform.

Substrate in data set [4]: N[C@H](Cc1c[nH]cn1)C(=O)O
The description is as §1.

Sequence of Carbonic anhydrase 4 (Homo sapiens) (P22748 whole entry): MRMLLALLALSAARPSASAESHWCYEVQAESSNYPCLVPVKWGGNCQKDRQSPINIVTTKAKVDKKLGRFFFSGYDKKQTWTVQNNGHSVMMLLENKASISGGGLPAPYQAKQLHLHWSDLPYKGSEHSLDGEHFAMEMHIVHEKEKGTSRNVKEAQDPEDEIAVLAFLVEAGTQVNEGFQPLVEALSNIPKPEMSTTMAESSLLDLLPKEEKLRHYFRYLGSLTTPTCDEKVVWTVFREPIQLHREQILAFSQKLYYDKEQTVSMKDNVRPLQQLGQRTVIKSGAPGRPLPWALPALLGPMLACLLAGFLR

Take `N[C@H](Cc1c[nH]cn1)C(=O)O`: the KA in data set [1] worked out at 12.3 µM; in data set [2] it was 14.1 µM.
The like results for `NCCc1c[nH]cn1` were, in that order, 25.3 µM and 18.5 µM.
Take `CNC[C@@H](O)c1ccc(O)c(O)c1`: the KA in data set [1] was 45 µM; in data set [2], 6.9 µM.
Take `Nc1ccc(C[C@H](N)C(=O)O)cc1`: the KA in data set [1] turned out to be 0.079 µM; in data set [2], 16.3 µM.
In the case of `N[C@@H](Cc1c[nH]cn1)C(=O)O`, the values for the KA in data set [1] and in data set [2] were 7.3 µM and 32.1 µM, respectively.
In the same order, the values of `N[C@H](Cc1ccc(O)c(O)c1)C(=O)O` are 34.7 µM and 4 µM.
In the same order, the values of `NCCc1ccc(O)c(O)c1` are 30.9 µM and 7.1 µM.
The like results for `NCCc1c[nH]c2ccc(O)cc12` were, in that order, 3.14 µM and 7.5 µM.
As to `NCCc1ccccn1`, the KA was determined as 7.13 µM in data set [1] and 11.9 µM in data set [2].
In the same order, the values of `NCCN1CCOCC1` are 1.3 µM and 9.3 µM.
In the same order, the values of `NCCN1CCNCC1` are 24.9 µM and 10.4 µM.
`NCc1ccccn1`: the KA in data set [1] was 5.19 µM; in data set [2] it was 11.6 µM.
In the same order, the values of `N[C@H](Cc1c[nH]c2ccccc12)C(=O)O` are 39.6 µM and 8.7 µM.
The like results for `N[C@@H](Cc1ccc(O)c(O)c1)C(=O)O` were, in that order, 15.3 µM and 6.5 µM.
The like results for `N[C@@H](Cc1c[nH]c2ccccc12)C(=O)O` were, in that order, 37.1 µM and 13.5 µM.
In the case of `N[C@@H](Cc1ccc(O)cc1)C(=O)O`, the KA in data set [1] was 25.1 µM; in data set [2], 8.9 µM.

B1: Carbonic anhydrase 15 (Mus musculus), Q99N23 (protein)
chain: MWALDFLLSFLLIQLAAQVDSSGTWCYDSQDPKCGPAHWKELAPACGGPTQSPINIDLRLVQRDYTLKPFIFQGYDSAPQDPWVLENDGHTVLLRVNSCQQNCPAIRGAGLPSPEYRLLQLHFHWGSPGHQGSEHSLDEKHGSMEMHMVHMNTKYQSMEDARSQPDGFAILAVLLVEEDRDNTNFSAIVSGLKNLSSPGVAVNLTSTFALASLLPSALRLLRYYRYSGSLTTPGCEPAVLWTVFENTVPIGHAQVVQFQAVLQTGPPGLHPRPLTSNFRPQQPLGGRRISASPEASVRSSVSTLPCLHLALVGLGVGLRLWQGP
B1: the kcat in data set [3] stood at 8.5 ×10⁵ /s; in data set [4] it was 15 ×10⁵ /s.
